The values below come from patent US9156824B2, “CDC7 inhibitors” (Eli Lilly and Company, priority 2013, dated 2015).

Where two headings read alike, the source gives them in different places.

In assay [1] the test system is phosphorylated MCM2 at Serine 53 (pMCM2-S53) in H1299 cells. Briefly: Acumen imaging assay for detection of phosphorylated MCM2 in H1299 cells. The format is cell-based. Particulars: 4 hours treatment, read-out: IC50, inhibition of pMCM2-S53. On the procedure:
The Acumen® eX3 is used to determine the effect of compounds on the formation of endogenous phosphorylated MCM2 at Serine 53 (pMCM2-S53). Phosphorylation of MCM2 by CDC7 is determined using specific anti-pMCM2-S53 antibody and quantified with fluorescent tagged secondary antibodies by Acumen® eX3 to monitor CDC7 activity in cells. Phosphorylation of MCM2 at Serine 53 is known to be correlated to CDC7 inhibition.
H1299 cells (ATCC #CRL-5803) are maintained in RPMI-1640 (Hyclone SH30809.01) growth medium supplemented with 10% FBS. Cells are harvested using standard cell culture procedures and then counted using Vi-Cell XR Cell Viability Analyzer (Beckman Counter). 3000-6000 H1299 cells in 100 μL of growth medium are plated into each well of Biocoat Poly-D-Lysine 96-well black/clear plate with flat bottom BioCoat™ Multiwell (Becton Dickinson) cell culture plates 356640 and incubated overnight at 37° C., 5% CO2.
Cells are treated with the test compound (50 μL/well) diluted in medium containing 0.6% DMSO and incubated for 4 hours at 37° C. To each well is added 7.4% formaldehyde (150 μL) diluted with PBS from 37% formaldehyde stock and the plates are incubated at room temperature for 30 minutes. Formaldehyde is removed and cold methanol (100 μL) is added. The plates are incubated for 20 minutes at 4° C. to permeabilize the cells. Plates are washed 3× with 100 μL/well of PBS. […] The plates are sealed with black seal and are read on the Acumen® eX3 (TTP LABTECH) using optical filter 500-530 nanometer and 575-640 nanometer for Alexa Fluor 488 and propidium iodide, respectively. The number of pMCM2-S53 positive cells is normalized to total cells for each well and are calculated as percent inhibition relative to on-plate controls. […]

The target in another assay is T1, CDC7/DBF4 (Homo sapiens, UniProt O00311).
T1 construct: host or cells: insect cells
Briefly: CDC7/DBF4 in vitro enzyme assay (Transcreener Kinase ADP-FP). The format is biochemical. Conditions: ATP 5 μM, MCM2 400 nM, 60 minutes, read-out: IC50 against CDC7/DBF4 kinase. On the procedure: The Transcreener™ Kinase ADP-FP assay is used to determine compound IC50 values against CDC7/DBF4 kinase. The Kinase ADP-FP assay assesses the activity of CDC7/DBF4 in the presence of compound inhibitors by measuring the concentration of ADP formed in a kinase reaction. The kinase reaction is performed using a 25 microliter reaction volume in 96 well assay plate. For the ADP-FP assay, the reagents are added to obtain the final reaction conditions of HEPES (25 mM) pH 7.5, 0.03% Triton® X-100, magnesium chloride (10 mM), DTT (1 mM), MCM2 (400 nM) (Amino Acid 1-209, a physiological substrate of CDC7/DBF4), spermine (4 mM), CDC7/DBF4 (2,640 ng/mL) (recombinant human CDC7/DBF4 expressed in insect cells), 4% dimethyl sulfoxide and serial dilutions of compound (diluted 1:3 from 20,000 nM to 1 nM). Enzyme and substrate is added to compound followed by ATP to 5 μM to start the reaction. The plates are incubated at room temperature for 60 minutes.
For the ADP-FP format add 25 microliters of a quench detection reagent containing HEPES (52 mM) pH 7.5, EDTA (20 mM), sodium chloride (0.4 M), polyoxyethyleneglycol dodecyl ether (0.02%) (BRIJ-35™), anti-ADP antibody (10 μg/mL), and ADP (4 nM) Transcreener® ADP Alexa Fluor® 633 tracer to quench the reaction. The plates are incubated for 1 hour, and then read in a Wallac EnVision™ 2104 Multilabel Reader (PerkinElmer) in Fluorescence Polarization mode using polarizing filters of Ex620nm and Em688nm wavelength. Millipolarization (mP) raw data is converted to micromolar ADP using a prepared ADP/ATP standard curve starting at 5 μM ADP 1:1 serial dilution in reaction buffer to 0.0025 μM ADP. The IC50 value for each compound is derived using percent inhibition data calculated from the μM ADP reaction data relative to on-plate controls (DMSO versus 100 mM EDTA inhibited enzyme controls). The percent inhibition and ten-point compound concentration data is then fitted to a four-parameter logistic equation.

In assay [2] the test system is panel of 114 cancer cell lines of colorectal, breast, lung, and blood (leukemia) origin. Briefly: In vitro antiproliferative assay (cell number counting). The format is cell-based. Particulars: for Number of Cell Lines that Die Rapidly: within 2 doubling times. On the procedure: In vitro anti-proliferative activity of Example 2 is determined by cell number counting assays against a panel of 114 cancer cell lines of colorectal, breast, lung, and blood (leukemia) origin obtained from ATCC, HSRRB, RIKEN or ECACC. The cells are cultured and maintained in media per supplier's instructions. Cell doubling time of each cell line is determined and all cell lines are free of mycoplasma contamination. Cells are cultured overnight in 96-well plates before compound addition for anti-proliferative activity assays. Optimal cell seeding density is carefully evaluated for each cell lines by seeding the cell culture with 4 different cell densities in 100 μL media and taking into consideration of their doubling time and cell sizes. The seeding density that gave about 90% confluence at end of two doubling times is then selected for compound testing. Staurosporine is used with 1:3 dilution as a reference. Example 2 is prepared as a 4 mM DMSO stock and diluted in culture media in a 1:2 ratio. 50 μL of the media containing the compound is added to each well of the overnight 96-well culture to produce the desired final concentrations of 20, 10, 5, 2.5, 1.25, 0.625, 0.312, 0.156, 0.078 μM and DMSO control. Each treatment concentration has duplicate wells. The cells are further cultured for two doubling times in the presence of the compound. At end of treatment time, cells are first examined under a microscope for morphological changes, such as cell death or apparent cell size increases. Cells in each duplicate well are collected separately. Adherent cells are harvested by tripsinization first. Harvested cells are re-suspended in growth media and are counted using a cell counter.

In assay [3] the test system is pMCM2-S40/41 in Colo-205 xenograft tumors. The experiment in a line: CDC7 in vivo target inhibition (IVTI) on pMCM2-S40/41 with Colo-205 xenograft tumor model. Particulars: 4 hours following an oral dose. Set-up: species or system mice. On the procedure:
Human colo-205 colorectal cancer cells (ATCC#CCL-222) are maintained in RPMI 1640 medium containing 10% FBS. Log phase growing cells are harvested, washed, and resuspended in a 1:1 mixture of serum free medium and Matrigel™ (Becton Dickinson). They are injected subcutaneously at 5×10^6 cells/animal/site in the rear flank as subcutaneous tumor xenograft models in balb/c (nu/nu) female mice (6-8 weeks with body weight of 20 to 25 gram/mouse). Animals are randomized at the mean tumor volume of 150 to 250 mm^3 mice, (v=1×w×0.536 where 1=larger of measured diameter and w=smaller of perpendicular diameter). Compound is administered by P.O. in a standard 1% HEC w/v, P80 0.25% v/v, Antifoam 1510-US 0.05% v/v formulation. […] Protein concentration from tumor lysates is determined by BCA assay (Thermo Scientific) and 5 to 10 μg of protein is separated by standard SDS-PAGE (BioRad Criterion™ gel) or (Invitrogen ePage™ gel). […] Levels of pMCM2-S40/41 are determined and quantified by either Licor or FUJI imagers and normalized to the total GAPDH level. The percent change inhibition of pMCM2-S40/41 band intensity is calculated using the average intensity of vehicle treated control tumors normalized to the GAPDH as the maximum signal. […]

T1 sequence (O00311 whole entry): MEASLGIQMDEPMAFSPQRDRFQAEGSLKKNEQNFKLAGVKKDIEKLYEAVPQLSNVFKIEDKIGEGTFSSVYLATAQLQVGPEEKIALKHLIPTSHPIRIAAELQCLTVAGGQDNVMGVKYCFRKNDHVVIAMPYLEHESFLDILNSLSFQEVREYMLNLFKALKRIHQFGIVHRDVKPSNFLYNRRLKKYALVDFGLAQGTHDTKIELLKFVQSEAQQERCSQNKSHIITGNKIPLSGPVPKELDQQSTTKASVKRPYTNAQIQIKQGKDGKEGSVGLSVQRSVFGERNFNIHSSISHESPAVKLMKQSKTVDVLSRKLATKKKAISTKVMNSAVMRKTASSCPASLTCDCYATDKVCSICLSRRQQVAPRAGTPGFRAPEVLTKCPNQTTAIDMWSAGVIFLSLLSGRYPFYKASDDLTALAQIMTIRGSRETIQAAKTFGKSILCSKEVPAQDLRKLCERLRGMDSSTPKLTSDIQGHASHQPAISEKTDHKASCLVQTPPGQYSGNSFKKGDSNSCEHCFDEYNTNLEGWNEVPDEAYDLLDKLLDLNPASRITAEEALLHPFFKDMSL
T1 sequence (Q9UBU7 whole entry partner): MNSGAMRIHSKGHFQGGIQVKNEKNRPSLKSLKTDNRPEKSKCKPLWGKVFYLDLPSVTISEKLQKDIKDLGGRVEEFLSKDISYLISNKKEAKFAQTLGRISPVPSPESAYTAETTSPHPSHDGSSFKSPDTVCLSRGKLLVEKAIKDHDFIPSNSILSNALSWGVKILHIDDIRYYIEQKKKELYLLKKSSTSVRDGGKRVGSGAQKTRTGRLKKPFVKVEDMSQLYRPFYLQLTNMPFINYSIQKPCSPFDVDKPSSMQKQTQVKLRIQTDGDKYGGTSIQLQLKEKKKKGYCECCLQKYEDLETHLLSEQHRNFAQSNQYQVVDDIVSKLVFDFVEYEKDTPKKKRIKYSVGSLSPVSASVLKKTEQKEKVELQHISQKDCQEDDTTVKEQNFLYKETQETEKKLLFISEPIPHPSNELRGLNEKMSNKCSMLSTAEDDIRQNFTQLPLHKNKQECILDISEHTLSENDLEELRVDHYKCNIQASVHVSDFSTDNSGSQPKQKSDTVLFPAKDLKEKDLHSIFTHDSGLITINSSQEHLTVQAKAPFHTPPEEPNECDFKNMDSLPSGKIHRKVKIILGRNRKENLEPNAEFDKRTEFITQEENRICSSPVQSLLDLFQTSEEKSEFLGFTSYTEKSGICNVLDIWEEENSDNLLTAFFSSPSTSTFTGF

`CC1(c2ncncc2F)NC(=O)c2cc(-c3cn[nH]c3)ccc21` (single isomer, unassigned; isomer 2) [Example 2, 3-(5-Fluoropyrimidin-4-yl)-3-methyl-6-(1H-pyrazol-4-yl)isoindolin-1-one, Isomer 2]: the IC50 in assay [1] (Homo sapiens, NCI-H1299, 4 h) is 261 nM; on CDC7/DBF4, 3.7 nM; in assay [2] (majority of the 114 cancer cell lines tested, read-out: anti-proliferative activity, pharmacologically relevant concentrations), less than 8000 nM. Besides, the “Number of Cell Lines that Die Rapidly” value in assay [2] (Breast, of 17 cell lines) was found to be 0; in assay [2] (Colorectal, of 29 cell lines), 4; in assay [2] (Leukemia, of 23 cell lines), 5; in assay [2] (Lung, of 39 cell lines), 2; in assay [2] (Others, of 6 cell lines) it was 1; in assay [2] (Total, of 114 cell lines) it was 12. The “cancer cell lines showing particular sensitivity (massive cell death)” value in assay [2] (share of the 114 cell lines, within 2 doubling time treatment periods) was “about 10%”.
Take `CC1(c2ncncc2F)NC(=O)c2cc(-c3cn[nH]c3)ccc21` (single isomer, unassigned) [Example 3, 3-(5-Fluoropyrimidin-4-yl)-3-methyl-6-(1H-pyrazol-4-yl)isoindolin-1-one]: the IC50 in assay [1] worked out at 290 nM. For the same compound, on CDC7/DBF4, the IC50 stood at 4.5 nM. Moreover, in assay [3], the “TEC70 (plasma concentration for 70% inhibition of pMCM2 normalized to GAPDH)” value came to 1.8 μM and the “TED70 (dose for 70% inhibition of pMCM2 normalized to GAPDH)” value is 2.6 mg/kg.
